Measurements from ChEMBL document CHEMBL3132771, “Machine-assisted synthesis of modulators of the histone reader BRD9 using flow methods of chemistry and frontal affinity chromatography” (Medchemcomm, 2014).
The source made the active and inactive calls. The calls are words filed in the database; no cut-off is given here.

Molecular target: Chromatin remodeling regulator CECR2 (Homo sapiens) (UniProt Q9BXF3)
Test: Binding affinity to CECR2 (unknown origin) at 4 uM by thermal shift assay

Chain of Chromatin remodeling regulator CECR2 (Homo sapiens) (Q9BXF3 whole entry, looked up): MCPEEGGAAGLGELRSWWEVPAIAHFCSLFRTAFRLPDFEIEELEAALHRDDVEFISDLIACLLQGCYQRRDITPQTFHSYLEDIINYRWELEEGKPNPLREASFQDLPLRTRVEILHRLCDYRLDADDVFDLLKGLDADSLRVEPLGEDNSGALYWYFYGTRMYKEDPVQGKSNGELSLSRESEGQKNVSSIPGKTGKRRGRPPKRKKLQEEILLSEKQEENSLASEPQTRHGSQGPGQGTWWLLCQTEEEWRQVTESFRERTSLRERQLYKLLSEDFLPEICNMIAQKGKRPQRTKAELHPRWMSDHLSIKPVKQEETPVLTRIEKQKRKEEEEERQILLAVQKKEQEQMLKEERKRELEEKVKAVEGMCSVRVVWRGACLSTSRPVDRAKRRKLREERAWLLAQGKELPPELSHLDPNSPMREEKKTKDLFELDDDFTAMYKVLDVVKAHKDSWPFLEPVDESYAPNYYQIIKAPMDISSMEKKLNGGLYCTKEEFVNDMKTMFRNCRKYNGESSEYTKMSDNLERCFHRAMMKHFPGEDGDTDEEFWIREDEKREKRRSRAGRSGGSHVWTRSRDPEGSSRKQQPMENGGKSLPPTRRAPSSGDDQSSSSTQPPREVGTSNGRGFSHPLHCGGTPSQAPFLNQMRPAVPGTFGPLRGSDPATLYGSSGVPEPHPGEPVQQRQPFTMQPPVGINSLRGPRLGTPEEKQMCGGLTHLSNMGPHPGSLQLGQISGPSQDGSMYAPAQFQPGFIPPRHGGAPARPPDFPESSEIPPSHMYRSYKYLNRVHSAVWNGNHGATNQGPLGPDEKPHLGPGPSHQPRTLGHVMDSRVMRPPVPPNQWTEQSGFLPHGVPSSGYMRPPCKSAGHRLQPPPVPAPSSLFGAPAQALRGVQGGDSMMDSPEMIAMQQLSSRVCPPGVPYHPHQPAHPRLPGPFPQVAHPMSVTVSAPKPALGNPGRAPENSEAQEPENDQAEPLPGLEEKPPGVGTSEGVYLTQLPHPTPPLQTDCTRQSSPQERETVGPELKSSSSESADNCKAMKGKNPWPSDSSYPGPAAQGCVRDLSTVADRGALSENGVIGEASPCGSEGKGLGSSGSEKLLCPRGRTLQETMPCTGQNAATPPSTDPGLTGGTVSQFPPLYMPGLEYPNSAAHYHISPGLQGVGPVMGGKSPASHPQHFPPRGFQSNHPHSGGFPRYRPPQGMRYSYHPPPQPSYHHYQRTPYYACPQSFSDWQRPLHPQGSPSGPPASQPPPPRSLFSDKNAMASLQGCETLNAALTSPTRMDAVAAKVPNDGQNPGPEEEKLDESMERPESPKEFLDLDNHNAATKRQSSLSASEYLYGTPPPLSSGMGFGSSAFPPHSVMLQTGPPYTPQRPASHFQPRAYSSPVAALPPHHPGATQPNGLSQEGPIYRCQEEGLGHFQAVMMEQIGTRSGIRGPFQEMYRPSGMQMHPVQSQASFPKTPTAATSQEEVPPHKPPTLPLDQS

| Compound | Activity |
| --- | --- |
| COc1ccc(-c2ccc3nnc(C(F)(F)F)n3n2)cc1 | inactive |
| CCOC(=O)N(c1cc(-c2cc(N)c3nnc(C)n3n2)ccc1C)S(=O)(=O)c1ccc(Cl)cc1 | inactive |
| FC(F)(F)c1nnc2ccc(-c3ccccc3)nn12 | inactive |

Molecular target: T1, Transcription intermediary factor 1-alpha (Homo sapiens) (UniProt O15164)
T1 sequence (whole entry): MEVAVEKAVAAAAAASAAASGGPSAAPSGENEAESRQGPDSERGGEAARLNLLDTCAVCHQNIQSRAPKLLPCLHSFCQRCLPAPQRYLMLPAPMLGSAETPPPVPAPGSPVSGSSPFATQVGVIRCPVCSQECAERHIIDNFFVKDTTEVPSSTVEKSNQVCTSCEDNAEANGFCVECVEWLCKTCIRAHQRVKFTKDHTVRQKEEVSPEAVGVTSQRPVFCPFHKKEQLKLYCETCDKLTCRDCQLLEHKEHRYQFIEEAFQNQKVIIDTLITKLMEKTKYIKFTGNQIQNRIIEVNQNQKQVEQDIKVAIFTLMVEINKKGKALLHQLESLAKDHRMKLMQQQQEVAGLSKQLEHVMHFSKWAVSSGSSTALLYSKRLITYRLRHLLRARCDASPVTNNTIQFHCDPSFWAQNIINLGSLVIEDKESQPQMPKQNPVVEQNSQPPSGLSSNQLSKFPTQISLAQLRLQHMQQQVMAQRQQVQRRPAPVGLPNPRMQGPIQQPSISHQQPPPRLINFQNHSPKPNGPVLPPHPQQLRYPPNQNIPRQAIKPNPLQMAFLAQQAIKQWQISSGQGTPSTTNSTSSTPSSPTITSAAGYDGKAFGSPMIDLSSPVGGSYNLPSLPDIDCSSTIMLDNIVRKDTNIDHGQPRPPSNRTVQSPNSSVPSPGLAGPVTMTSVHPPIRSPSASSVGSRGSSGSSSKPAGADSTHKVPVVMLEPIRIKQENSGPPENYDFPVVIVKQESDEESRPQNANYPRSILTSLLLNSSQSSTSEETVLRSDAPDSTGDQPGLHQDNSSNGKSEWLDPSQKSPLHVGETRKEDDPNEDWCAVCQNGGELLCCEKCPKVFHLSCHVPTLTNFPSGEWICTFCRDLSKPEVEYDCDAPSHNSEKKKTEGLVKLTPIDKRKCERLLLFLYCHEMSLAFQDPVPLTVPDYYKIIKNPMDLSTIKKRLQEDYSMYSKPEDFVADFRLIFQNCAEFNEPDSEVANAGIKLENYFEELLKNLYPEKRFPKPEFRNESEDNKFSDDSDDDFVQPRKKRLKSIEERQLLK
Test: Binding affinity to TIF1 (unknown origin) at 4 uM by thermal shift assay

| Compound | Activity |
| --- | --- |
| COc1ccc(-c2ccc3nnc(C(F)(F)F)n3n2)cc1 | inactive |
| CCOC(=O)N(c1cc(-c2cc(N)c3nnc(C)n3n2)ccc1C)S(=O)(=O)c1ccc(Cl)cc1 | inactive |
| FC(F)(F)c1nnc2ccc(-c3ccccc3)nn12 | inactive |

Molecular target: CREB-binding protein (Homo sapiens) (UniProt Q92793)
Test: Binding affinity to CREBBP (unknown origin) at 4 uM by thermal shift assay

Chain of CREB-binding protein (Homo sapiens) (Q92793 2-2442 limits assumed): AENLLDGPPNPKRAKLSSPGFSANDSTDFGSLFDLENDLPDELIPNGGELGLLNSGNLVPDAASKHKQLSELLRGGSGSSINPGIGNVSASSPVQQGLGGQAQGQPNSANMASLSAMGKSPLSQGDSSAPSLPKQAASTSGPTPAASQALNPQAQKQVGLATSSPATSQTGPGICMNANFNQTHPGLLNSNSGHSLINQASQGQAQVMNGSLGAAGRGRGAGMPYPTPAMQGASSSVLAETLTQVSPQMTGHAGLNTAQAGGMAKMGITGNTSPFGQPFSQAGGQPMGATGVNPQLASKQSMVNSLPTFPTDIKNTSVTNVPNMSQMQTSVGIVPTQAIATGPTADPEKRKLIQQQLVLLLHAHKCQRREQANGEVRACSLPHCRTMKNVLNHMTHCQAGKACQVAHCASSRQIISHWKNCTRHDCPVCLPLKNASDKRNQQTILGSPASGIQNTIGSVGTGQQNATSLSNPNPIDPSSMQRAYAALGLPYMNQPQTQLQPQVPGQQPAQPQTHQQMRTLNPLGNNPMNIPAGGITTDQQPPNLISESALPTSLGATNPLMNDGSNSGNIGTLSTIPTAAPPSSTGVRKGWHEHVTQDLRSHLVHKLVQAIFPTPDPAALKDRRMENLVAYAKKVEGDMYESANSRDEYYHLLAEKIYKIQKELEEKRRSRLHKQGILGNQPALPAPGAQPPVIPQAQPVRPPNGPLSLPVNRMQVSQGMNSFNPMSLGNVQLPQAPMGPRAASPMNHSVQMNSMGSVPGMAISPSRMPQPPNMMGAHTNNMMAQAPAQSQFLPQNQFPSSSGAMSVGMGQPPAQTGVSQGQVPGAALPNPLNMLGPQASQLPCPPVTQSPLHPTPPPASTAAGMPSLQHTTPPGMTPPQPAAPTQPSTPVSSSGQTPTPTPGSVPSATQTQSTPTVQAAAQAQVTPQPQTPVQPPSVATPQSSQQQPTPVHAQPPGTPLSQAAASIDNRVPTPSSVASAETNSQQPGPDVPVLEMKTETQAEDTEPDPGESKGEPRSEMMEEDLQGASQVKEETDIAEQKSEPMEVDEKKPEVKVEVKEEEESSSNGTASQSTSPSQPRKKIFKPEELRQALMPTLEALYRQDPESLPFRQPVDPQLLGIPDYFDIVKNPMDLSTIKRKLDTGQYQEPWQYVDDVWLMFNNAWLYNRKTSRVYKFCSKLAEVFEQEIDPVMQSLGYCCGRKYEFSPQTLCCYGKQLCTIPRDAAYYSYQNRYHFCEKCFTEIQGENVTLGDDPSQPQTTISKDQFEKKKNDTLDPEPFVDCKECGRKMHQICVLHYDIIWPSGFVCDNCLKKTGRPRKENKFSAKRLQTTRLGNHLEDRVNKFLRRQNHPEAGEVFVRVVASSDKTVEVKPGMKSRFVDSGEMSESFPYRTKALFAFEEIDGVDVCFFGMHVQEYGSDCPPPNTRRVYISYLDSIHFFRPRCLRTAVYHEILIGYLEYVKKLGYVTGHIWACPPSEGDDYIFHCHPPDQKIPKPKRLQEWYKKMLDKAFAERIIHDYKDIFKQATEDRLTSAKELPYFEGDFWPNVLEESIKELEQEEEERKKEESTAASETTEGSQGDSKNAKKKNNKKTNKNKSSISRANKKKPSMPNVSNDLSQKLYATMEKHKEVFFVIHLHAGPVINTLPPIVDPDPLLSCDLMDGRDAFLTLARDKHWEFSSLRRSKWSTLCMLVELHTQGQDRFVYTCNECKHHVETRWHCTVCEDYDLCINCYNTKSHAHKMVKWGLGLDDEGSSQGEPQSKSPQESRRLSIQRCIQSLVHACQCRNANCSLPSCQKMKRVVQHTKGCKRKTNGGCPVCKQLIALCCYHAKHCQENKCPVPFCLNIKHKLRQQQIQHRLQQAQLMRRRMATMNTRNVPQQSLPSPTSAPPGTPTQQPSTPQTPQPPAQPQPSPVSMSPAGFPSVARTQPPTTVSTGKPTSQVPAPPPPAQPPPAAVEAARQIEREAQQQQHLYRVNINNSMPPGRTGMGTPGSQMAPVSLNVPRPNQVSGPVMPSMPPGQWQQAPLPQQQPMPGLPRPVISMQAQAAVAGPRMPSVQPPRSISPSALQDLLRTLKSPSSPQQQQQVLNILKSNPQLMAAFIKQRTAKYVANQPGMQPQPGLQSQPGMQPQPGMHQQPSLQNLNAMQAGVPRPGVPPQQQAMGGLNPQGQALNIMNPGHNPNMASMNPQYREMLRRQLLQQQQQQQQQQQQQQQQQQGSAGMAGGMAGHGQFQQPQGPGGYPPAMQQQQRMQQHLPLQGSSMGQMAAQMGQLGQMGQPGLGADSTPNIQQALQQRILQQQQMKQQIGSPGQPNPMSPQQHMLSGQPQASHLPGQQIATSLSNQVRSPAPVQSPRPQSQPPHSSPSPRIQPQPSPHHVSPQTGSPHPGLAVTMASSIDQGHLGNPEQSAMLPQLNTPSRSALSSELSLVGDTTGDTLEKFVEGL

| Compound | Activity |
| --- | --- |
| COc1ccc(-c2ccc3nnc(C(F)(F)F)n3n2)cc1 | inactive |
| CCOC(=O)N(c1cc(-c2cc(N)c3nnc(C)n3n2)ccc1C)S(=O)(=O)c1ccc(Cl)cc1 | inactive |
| FC(F)(F)c1nnc2ccc(-c3ccccc3)nn12 | inactive |

Molecular target: T2, Bromodomain-containing protein 9 (Homo sapiens, UniProt Q9H8M2)
T2 sequence (Q9H8M2 whole entry): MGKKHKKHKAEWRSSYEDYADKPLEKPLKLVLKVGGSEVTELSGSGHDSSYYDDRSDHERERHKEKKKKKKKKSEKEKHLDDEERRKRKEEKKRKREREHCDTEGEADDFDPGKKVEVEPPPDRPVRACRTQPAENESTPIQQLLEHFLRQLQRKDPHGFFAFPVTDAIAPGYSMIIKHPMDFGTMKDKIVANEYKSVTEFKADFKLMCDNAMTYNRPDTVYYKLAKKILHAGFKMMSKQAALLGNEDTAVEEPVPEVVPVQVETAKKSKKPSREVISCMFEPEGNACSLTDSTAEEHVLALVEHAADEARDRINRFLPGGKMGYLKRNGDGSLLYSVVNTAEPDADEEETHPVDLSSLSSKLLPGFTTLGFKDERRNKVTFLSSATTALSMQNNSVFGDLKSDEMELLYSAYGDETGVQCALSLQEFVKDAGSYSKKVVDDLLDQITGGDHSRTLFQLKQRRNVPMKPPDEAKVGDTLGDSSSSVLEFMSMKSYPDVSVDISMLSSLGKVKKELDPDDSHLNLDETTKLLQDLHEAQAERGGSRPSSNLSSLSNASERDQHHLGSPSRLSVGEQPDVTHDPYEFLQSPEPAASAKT
Test: Binding affinity to human recombinant biotinylated BRD9 compound treated in PBS buffer by FAC-MS analysis

| Compound | Kd [µM] |
| --- | --- |
| Cc1nnc2c(NC(=O)OC(C)(C)C)cc(-c3ccccc3)nn12 | 8.35 |

Organism: Homo sapiens
Test: Binding affinity to BRD1A (unknown origin) at 4 uM by thermal shift assay

| Compound | Activity |
| --- | --- |
| COc1ccc(-c2ccc3nnc(C(F)(F)F)n3n2)cc1 | inactive |
| CCOC(=O)N(c1cc(-c2cc(N)c3nnc(C)n3n2)ccc1C)S(=O)(=O)c1ccc(Cl)cc1 | inactive |
| FC(F)(F)c1nnc2ccc(-c3ccccc3)nn12 | inactive |

Molecular target: Bromodomain-containing protein 4 (Homo sapiens) (UniProt O60885)
Test: Binding affinity to BRD4 (unknown origin) at 4 uM by thermal shift assay

| Compound | Activity |
| --- | --- |
| COc1ccc(-c2ccc3nnc(C(F)(F)F)n3n2)cc1 | inactive |
| CCOC(=O)N(c1cc(-c2cc(N)c3nnc(C)n3n2)ccc1C)S(=O)(=O)c1ccc(Cl)cc1 | inactive |
| Cc1ccc(-c2cc(N)c3nnc(C)n3n2)cc1NS(=O)(=O)c1ccccc1Cl | Active |
| FC(F)(F)c1nnc2ccc(-c3ccccc3)nn12 | inactive |

Molecular target: T3, Peregrin (Homo sapiens) (UniProt P55201)
T3 sequence (whole entry): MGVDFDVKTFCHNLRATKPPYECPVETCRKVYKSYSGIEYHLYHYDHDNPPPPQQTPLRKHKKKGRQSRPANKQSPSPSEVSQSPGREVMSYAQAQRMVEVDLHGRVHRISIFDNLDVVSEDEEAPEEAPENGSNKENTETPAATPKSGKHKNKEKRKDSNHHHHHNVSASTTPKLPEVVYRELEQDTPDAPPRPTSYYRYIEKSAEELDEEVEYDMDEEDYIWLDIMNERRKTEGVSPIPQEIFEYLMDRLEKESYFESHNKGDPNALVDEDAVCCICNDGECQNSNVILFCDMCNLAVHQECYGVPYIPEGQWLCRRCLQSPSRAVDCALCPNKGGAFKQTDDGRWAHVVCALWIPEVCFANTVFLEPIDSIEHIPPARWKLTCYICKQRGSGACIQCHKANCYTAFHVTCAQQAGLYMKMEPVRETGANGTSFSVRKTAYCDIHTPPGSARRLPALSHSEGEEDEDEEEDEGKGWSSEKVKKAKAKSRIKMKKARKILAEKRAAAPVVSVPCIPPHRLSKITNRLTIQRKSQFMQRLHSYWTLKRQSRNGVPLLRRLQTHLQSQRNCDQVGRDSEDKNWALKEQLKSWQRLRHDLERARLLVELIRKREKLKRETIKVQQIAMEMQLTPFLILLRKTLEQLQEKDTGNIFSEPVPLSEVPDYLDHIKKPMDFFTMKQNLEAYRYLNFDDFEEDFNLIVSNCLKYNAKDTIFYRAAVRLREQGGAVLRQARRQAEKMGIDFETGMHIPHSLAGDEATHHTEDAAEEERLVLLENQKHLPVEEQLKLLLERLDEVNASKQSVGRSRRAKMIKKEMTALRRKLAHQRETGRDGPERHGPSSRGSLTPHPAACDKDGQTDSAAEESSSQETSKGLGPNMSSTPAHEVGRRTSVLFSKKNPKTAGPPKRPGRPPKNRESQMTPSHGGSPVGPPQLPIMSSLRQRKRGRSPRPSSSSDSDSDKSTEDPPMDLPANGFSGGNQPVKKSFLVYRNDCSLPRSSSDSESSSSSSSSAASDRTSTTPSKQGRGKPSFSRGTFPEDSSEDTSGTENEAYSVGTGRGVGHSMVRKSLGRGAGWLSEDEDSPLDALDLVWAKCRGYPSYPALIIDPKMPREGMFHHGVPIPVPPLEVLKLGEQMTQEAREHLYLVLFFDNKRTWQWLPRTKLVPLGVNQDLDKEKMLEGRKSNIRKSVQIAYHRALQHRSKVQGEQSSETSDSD
Test: Binding affinity to BRPF1 (unknown origin) at 4 uM by thermal shift assay

| Compound | Activity |
| --- | --- |
| COc1ccc(-c2ccc3nnc(C(F)(F)F)n3n2)cc1 | inactive |
| CCOC(=O)N(c1cc(-c2cc(N)c3nnc(C)n3n2)ccc1C)S(=O)(=O)c1ccc(Cl)cc1 | inactive |
| FC(F)(F)c1nnc2ccc(-c3ccccc3)nn12 | inactive |

Molecular target: T4, Bromodomain-containing protein 9 (Homo sapiens) (UniProt Q9H8M2)
T4 sequence (whole entry): T2 sequence (Q9H8M2 whole entry)
Test: Binding affinity to human recombinant biotinylated BRD9 assessed as change in melting temperature at 4 uM by thermal shift assay

| Compound | ΔTm [°C] |
| --- | --- |
| COc1ccc(-c2ccc3nnc(C(F)(F)F)n3n2)cc1 | 0.6 |
| CCOC(=O)N(c1cc(-c2cc(N)c3nnc(C)n3n2)ccc1C)S(=O)(=O)c1ccc(Cl)cc1 | 2.7 |
| Cc1ccc(-c2cc(N)c3nnc(C)n3n2)cc1NS(=O)(=O)c1ccccc1Cl | 2.4 |
| FC(F)(F)c1nnc2ccc(-c3ccccc3)nn12 | -0.6 |

Organism: Homo sapiens
Test: Binding affinity to EP300A (unknown origin) at 4 uM by thermal shift assay

| Compound | Activity |
| --- | --- |
| COc1ccc(-c2ccc3nnc(C(F)(F)F)n3n2)cc1 | inactive |
| CCOC(=O)N(c1cc(-c2cc(N)c3nnc(C)n3n2)ccc1C)S(=O)(=O)c1ccc(Cl)cc1 | inactive |
| FC(F)(F)c1nnc2ccc(-c3ccccc3)nn12 | inactive |

Molecular target: T5, Bromodomain and PHD finger-containing protein 3 (Homo sapiens) (UniProt Q9ULD4)
T5 sequence (whole entry): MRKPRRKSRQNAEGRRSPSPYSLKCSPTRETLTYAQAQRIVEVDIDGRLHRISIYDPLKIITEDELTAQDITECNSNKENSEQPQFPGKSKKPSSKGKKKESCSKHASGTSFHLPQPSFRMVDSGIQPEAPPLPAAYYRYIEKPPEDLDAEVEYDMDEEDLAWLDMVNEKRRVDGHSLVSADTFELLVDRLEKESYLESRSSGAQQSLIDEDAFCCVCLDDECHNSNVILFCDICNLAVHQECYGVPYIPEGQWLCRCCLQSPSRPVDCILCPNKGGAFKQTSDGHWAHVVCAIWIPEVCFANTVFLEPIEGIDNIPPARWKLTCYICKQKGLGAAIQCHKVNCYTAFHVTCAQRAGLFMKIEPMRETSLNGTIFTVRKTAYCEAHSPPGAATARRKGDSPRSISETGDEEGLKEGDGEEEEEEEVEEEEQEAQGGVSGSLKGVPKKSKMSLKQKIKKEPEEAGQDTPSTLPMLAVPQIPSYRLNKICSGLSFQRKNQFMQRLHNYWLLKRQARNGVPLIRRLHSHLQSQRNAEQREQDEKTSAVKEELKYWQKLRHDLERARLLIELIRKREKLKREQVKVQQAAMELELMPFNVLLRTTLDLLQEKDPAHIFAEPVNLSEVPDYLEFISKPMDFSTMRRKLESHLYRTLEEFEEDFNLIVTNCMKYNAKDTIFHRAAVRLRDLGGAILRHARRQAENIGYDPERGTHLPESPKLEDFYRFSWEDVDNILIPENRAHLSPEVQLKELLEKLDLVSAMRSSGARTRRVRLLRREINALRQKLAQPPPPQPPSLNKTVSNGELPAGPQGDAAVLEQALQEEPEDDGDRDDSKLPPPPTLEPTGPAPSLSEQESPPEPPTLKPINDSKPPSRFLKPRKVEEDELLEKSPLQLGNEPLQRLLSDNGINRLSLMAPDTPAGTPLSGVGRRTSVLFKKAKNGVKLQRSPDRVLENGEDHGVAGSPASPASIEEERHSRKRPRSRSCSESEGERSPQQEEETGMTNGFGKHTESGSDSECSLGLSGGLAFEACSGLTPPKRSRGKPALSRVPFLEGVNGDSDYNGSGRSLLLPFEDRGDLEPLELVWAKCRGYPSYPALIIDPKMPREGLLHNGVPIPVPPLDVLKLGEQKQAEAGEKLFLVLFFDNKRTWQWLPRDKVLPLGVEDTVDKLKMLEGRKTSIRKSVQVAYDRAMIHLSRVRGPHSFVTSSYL
Test: Binding affinity to BRPF3 (unknown origin) at 4 uM by thermal shift assay

| Compound | Activity |
| --- | --- |
| COc1ccc(-c2ccc3nnc(C(F)(F)F)n3n2)cc1 | inactive |
| CCOC(=O)N(c1cc(-c2cc(N)c3nnc(C)n3n2)ccc1C)S(=O)(=O)c1ccc(Cl)cc1 | inactive |
| FC(F)(F)c1nnc2ccc(-c3ccccc3)nn12 | inactive |

Molecular target: T4, Bromodomain-containing protein 9 (Homo sapiens)
Test: Binding affinity to human recombinant biotinylated BRD9 assessed as retention volume at 4 uM by FAC-MS analysis

| Compound | Activity [µL] |
| --- | --- |
| COc1ccc(-c2ccc3nnc(C(F)(F)F)n3n2)cc1 | 270 |
| CCOC(=O)N(c1cc(-c2cc(N)c3nnc(C)n3n2)ccc1C)S(=O)(=O)c1ccc(Cl)cc1 | 947 |
| Cc1ccc(-c2cc(N)c3nnc(C)n3n2)cc1NS(=O)(=O)c1ccccc1Cl | 784 |
| FC(F)(F)c1nnc2ccc(-c3ccccc3)nn12 | 212 |

Molecular target: T2, Bromodomain-containing protein 9
Test: Binding affinity to human recombinant biotinylated BRD9 compound treated in ammonium acetate buffer by FAC-MS analysis

| Compound | Kd [µM] |
| --- | --- |
| Cc1nnc2c(NC(=O)OC(C)(C)C)cc(-c3ccccc3)nn12 | 8.35 |

Molecular target: T4, Bromodomain-containing protein 9 (Homo sapiens)
Test: Binding affinity to human recombinant biotinylated BRD9 by UV spectrophotometric analysis

| Compound | Activity |
| --- | --- |
| COc1ccc(-c2ccc3nnc(C(F)(F)F)n3n2)cc1 | Active |
| CCOC(=O)N(c1cc(-c2cc(N)c3nnc(C)n3n2)ccc1C)S(=O)(=O)c1ccc(Cl)cc1 | Active |
| Cc1ccc(-c2cc(N)c3nnc(C)n3n2)cc1NS(=O)(=O)c1ccccc1Cl | Active |
| FC(F)(F)c1nnc2ccc(-c3ccccc3)nn12 | Active |
